Each structure is given as a SMILES string. “Also recorded” adds a separate entry of the source. Where two headings read alike, the source gives them in different places.

The values below come from US5892029A, “3-hydroxy-2(1H)-pyridinone chelating agents” (priority 1997, dated 1999).

Data set [1] is described as follows: Chemical and physical properties (solubility, pKa, pH, hygroscopicity). The data set is classed as physicochemical.
Data set [2] in a line: Fe(III) complex formation constants and pM. The format is binding. Particulars: pH 7.4; chelator 10 and metal ion 1 μM. From the text: The new HOPO monomers display high affinity for ferric ions. For example, 1-methyl-4(1-propylcarbamoyl)-3-hydroxy-2(1H)-pyridinone (Formula 9C, backbone=n-propyl, R'=H, R1 =methyl) has overall complex binding constants on the order of 10^28.7 M-3 for Fe(III). However, because of the 3:1 stoichiometry of the bidentate monomer/Fe complex, its stability is strongly dependent on its concentration (by the 3rd power). Generally, the pM concept was used to define the concentration of unchelated metal ion at physiological pH (7.4), and at chelator and metal ion concentrations (10 and 1 μM, respectively) which are those expected in the plasma of a chelator-treated patient. […] Since the multidentate 3,2-HOPO ligands have higher pM values than their bidentate analogs, they have stronger scavenging power for iron and actinides in vivo. For example, the bidentate compound 1-methyl-4(1-propylcarbamoyl)-3-hydroxy-2(1H)-pyridinone has a pM of 19.26 for Fe(III), while the hexadentate compound TREN-Me-3,2-HOPO (Formula 12, m=1) has a pM of 26.69 for Fe(III).

The nature of data set [3]: Promoting excretion of U(VI) in mice by injected ligands (Table 5). The data set is classed as in vivo. From the text:
(§1) Animal studies were completed using methods detailed in Radiation Protection Dosimetry, 1994, 53, 305: P. W. Durbin et al., "In Vivo Chelation of Am(III), Pu(IV), Np(V) and U(VI) in Mice by TREN-(Me-3,2-HOPO)"; Radiation Protection Dosimetry, 1989, 17, 351: P. W. Durbin et al., "Removal of ^238 Pu(IV) from Mice by Polycatechoylate, -Hydroxamate or -Hydroxypyridinonate Ligands"; Radiation Research, 1984, 99, 85: P. W. Durbin et al., "Specific Sequestering Agents for the Actinides . . . "; Radiation Research, 1984, 99, 106: P. W. Durbin et al., "Removal of Pu and Am from Beagles and Mice . . . "; Radiation Research, 1980, 81, 170: R. D. Lloyd et al., and P. W. Durbin et al., "Specific Sequestering Agents for the Actinides . . . ". The foregoing articles are hereby incorporated by reference.
The ^232 U was obtained from the Isotope Products Laboratory, Burbank, Calif., and ^234,235 U was obtained as U metal from long-held LBL storage. The two U sources were combined and dissolved in 6N HNO3, dried, and redissolved in 0.1N HCl. The daughter radioactivities were removed by elution from a Dowex-50X4 column (22 cm length, 0.7 cm diameter, 1.5 mL min^-1 flow rate) with 3.2N HCl. The U fractions (previously identified by a trial run with ^234,235 U alone) were combined, dried, and redissolved in 0.14M NaCl at pH 5.5.
(§2) One of the novel chelating agents of the present invention, TREN-Me-3,2-HOPO, was also tested for effectiveness in promoting excretion of ^241 AM(III), ^237 Np(V), and ^232 U(VI) by injection into mice, as follows: Mice, in groups of five, each received an intravenous injection of (a) 1100 Bq of ^241 Am(III) in 0.2 mL of citrate buffer, (b) 150 Bq of ^232 UO2 Cl2 plus 3.6 mg of ^235 UO2 Cl2 in 0.2 mL of saline, or (c) 200 Bq of ^237 NpO2 Cl ([…] of ^237 NPO2 Cl) in 0.2 mL of saline. Three to five minutes later, 30 μmol/kg of TREN-Me-3,2-HOPO was injected intraperitoneally in 0.5 mL of saline. The mice were killed 24 hours after the actinide injection, frozen, and dissected after partial thawing. The skeleton, soft tissues, and separated excreta were radioanalyzed by counting the ^241 Am gamma rays, or the alpha particles emitted by ^237 Np or ^232 U (and its ingrowing daughters). Removal of those actinides from mice by injected TREN-Me-3,2-HOPO is summarized in Table 5, which also includes data for mice similarly treated with CaNa3 -DTPA and for actinide-injected controls. […] The structure of Am(III)-TREN-Me-3,2-HOPO is considered to resemble that of the Gd(III) complexes (see Example 20). Complexation of the fraction of Np(V) that is reduced in vivo to Np(IV) is considered to resemble that of Pu(IV). Complexation of U(VI) is considered to take place through binding to UO2^2+.
(§3) ^a Ligands (30 μmol/kg) i.p. at 3 to 5 min after actinide i.v.;

The nature of data set [4]: Promoting excretion of 241Am(III) in mice by injected ligands (Table 5). The format is in vivo.
Text: as §1
Radionuclides used in the animal studies came from a variety of sources. The ^238 Pu(IV) citrate and ^241 Am(III) citrate solutions were prepared for animal injection by 8- to 10-fold dilution with 0.14M NaC1 (pH 4) of concentrated stock solutions (0.08M sodium citrate buffer) that had been held in frozen storage at Lawrence Berkeley Laboratory (hereinafter LBL) for several years. [The ^238 Pu(IV) was originally obtained from D. R. Atherton at the University of Utah Radiobiology Laboratory, Salt Lake City. The ^241 Am(III) solution had been obtained many years earlier from the LBL Actinide Chemistry group.]
as §2, §3

Data set [5] can be described thus: Promoting excretion of 238Pu(IV) in mice by orally administered ligands (Table 4). The data set is classed as in vivo. Particulars: 30 μmol/kg by gavage.
Text: as §1
Radionuclides used in the animal studies came from a variety of sources. […]
The novel chelating agents of the present invention were tested for their effectiveness in promoting excretion of ^238 Pu(IV) by oral administration to mice as follows. […] The ^238 Pu(IV) in skeleton, soft tissues, and separated excreta was determined by counting the ^234 U L x-rays. […]

A short description of data set [6]: Promoting excretion of 237Np(V) in mice by injected ligands (Table 5). The format is in vivo.
Text: as §1
The ^237 Np(V) was obtained from J. Bucher of the LBL Actinide Chemistry group as NpO2 Cl in 0.1M HCl. It was diluted to the desired radioactivity concentration in 0.14M NaCl and the pH was adjusted to about 4.5 with NaOH just before use.
as §2, §3

Data set [7] is classed as in vivo, mice. Particulars: for body weight / plasma urea N: mean ± SD. On the procedure:
The test of acute toxicity of these novel ligands was carried out as follows. […] The ligand was dissolved in 0.5 to 1.0 ml of saline at pH 7 to 8. After a period of observation, the mice were killed, selected tissues were removed and fixed for histopathological examination,and unusual findings at autopsy were recorded.

Setting [8] is: 30 μmol/kg i.p. at 3 to 5 min after actinide i.v.
Setting [9] is: 30 μmol/kg i.p. at 3 to 5 min after actinide i.v., pooled.
[10] abbreviates: protocol I: 100 μmol/kg × 10 daily i.p., 11 d.
Setting [11] is: protocol I: 100 μmol/kg × 10 daily i.p., 21 d.
[12] abbreviates: protocol II: 500 μmol/kg × 2 in 8 h i.p., 8 d.

With `CCCNC(=O)c1ccn(C)c(=O)c1O` [3-hydroxy-1-methyl-4(1-propylcarbamoyl)-2(1H)-pyridinone], the “solubility (in words)” value in data set [1] was “very soluble in water as well as organic solvents”. The “pM for Fe(III)” value in data set [2] amounted to 19.26.
With `Cn1ccc(C(=O)NCCN(CCNC(=O)c2ccn(C)c(=O)c2O)CCNC(=O)c2ccn(C)c(=O)c2O)c(O)c1=O` [TREN-Me-3,2-HOPO], the “reduction of U content (in words)” value in data set [3] (30 μmol/kg i.p.) is “reduced the body content of all three actinides to a significantly greater degree than CaNa3 -DTPA; also recorded: more than one-half of the U burden in the kidneys was removed”. Further, in data set [3] (setting [8]), the “U(VI) in kidneys at 24 h” value is listed as 1.6 ± 0.3% of injected actinide, the “U(VI) in liver at 24 h” value is reported as 0.6 ± 0.3% of injected actinide, the “U(VI) in skeleton at 24 h” value is reported as 16 ± 2.4% of injected actinide and the “U(VI) in soft tissue at 24 h” value is 1.6 ± 0.3% of injected actinide. Further, in data set [3] (setting [8]), the “U(VI) in whole body at 24 h” value is recorded as 9.4 ± 6.0% of injected actinide. In data set [3] (setting [9]), the “U(VI) excreta: feces and GI contents” value was 2.3% of injected actinide; the “U(VI) excreta: urine 0-24 h” value was 70% of injected actinide. The “reduction of Am content (in words)” value in data set [4] (30 μmol/kg i.p.) was “reduced the body content of all three actinides to a significantly greater degree than CaNa3 -DTPA; also recorded: the Am content of all tissues was greatly reduced”. Besides, in data set [4] (setting [8]), the “Am(III) in liver at 24 h” value is listed as 1.0 ± 0.6% of injected actinide, the “Am(III) in skeleton at 24 h” value is 8.1 ± 6% of injected actinide, the “Am(III) in soft tissue at 24 h” value was 1.6 ± 0.6% of injected actinide and the “Am(III) in whole body at 24 h” value is given as 11 ± 1.4% of injected actinide. In data set [4] (setting [9]), the “Am(III) excreta: feces and GI contents” value was 8% of injected actinide; the “Am(III) excreta: urine 0-24 h” value is 51% of injected actinide; the “Am(III) in kidneys at 24 h” value was 0.2% of injected actinide. Also, the “effectiveness of Pu removal, oral (in words)” value in data set [5] is “the most effective both (by oral and injection) cases”. The “reduction of Np content (in words)” value in data set [6] (30 μmol/kg i.p.) is given as “reduced the body content of all three actinides to a significantly greater degree than CaNa3 -DTPA; also recorded: the Np content of the soft tissues was significantly reduced”. Also, in data set [6] (setting [8]), the “Np(V) in liver at 24 h” value was 3.8 ± 5.7% of injected actinide, the “Np(V) in skeleton at 24 h” value was 34 ± 4.5% of injected actinide, the “Np(V) in soft tissue at 24 h” value is reported as 3.1 ± 1.1% of injected actinide and the “Np(V) in whole body at 24 h” value was 42 ± 11% of injected actinide. For the same compound, in data set [6] (setting [9]), the “Np(V) excreta: feces and GI contents” value is listed as 17% of injected actinide; the “Np(V) excreta: urine 0-24 h” value is recorded as 40% of injected actinide; the “Np(V) in kidneys at 24 h” value is given as 1.0% of injected actinide. Also, in data set [7] (setting [10]), the body weight turned out to be 102 ± 1 percent control and the “plasma urea N” value is 112 ± 10 percent control. This compound also came in with a no. of survivors in data set [7] (protocol I: 100 μmol/kg × 10 daily i.p., 11 d, of 5 mice) of 5. Also, in data set [7] (setting [11]), the body weight is 106 ± 4 percent control and the “plasma urea N” value turned out to be 120 ± 9 percent control. Besides, the no. of survivors in data set [7] (protocol I: 100 μmol/kg × 10 daily i.p., 21 d, of 5 mice) stood at 5. In data set [7] (setting [12]), the body weight is reported as 101 ± 4 percent control and the “plasma urea N” value came to 119 ± 15 percent control. For the same compound, the no. of survivors in data set [7] (protocol II: 500 μmol/kg × 2 in 8 h i.p., 8 d, of 19 (TREN) or 10 (H(2,2)) mice) is given as 19. Moreover, the “pM for Fe(III)” value in data set [2] is 26.69.
